Test results from patent publication US7022716B2, “Cyclic amine phenyl beta-3 adrenergic receptor agonists” (Wyeth, priority 2000, dated 2006).

target: T1, human β3 adrenergic receptor (Homo sapiens, UniProt P13945); test: cAMP (SPA) response in CHO cells transfected with human β3 adrenergic receptor; type: cell-based; parameters: key: fraction of maximal isoproterenol (10^-5 M) response; conditions: maximal response relative to maximal response of isoproterenol at 10^-5 M
T1 construct: Full length β3 AR clones (402 amino acids) containing the last 6 amino acids of hβ3-AR are prepared; expressed in transfected cells; host or cells: CHO (Chinese hamster ovary) cells
Method: Binding to the receptors was measured in Chinese Hamster ovary (CHO) cells that were transfected with adrenergic receptors.
The corresponding primer sequences are described in Mantzoros, C. […] The four fragments are ligated into a pUC 18 plasmid (Gibco-BRL) and sequenced.
CHO cells were grown in 24-well tissue culture plates in Dulbecco's Modified Eagle Media with 10% fetal bovine serum, MEM non-essential amino acids, Penicillin-Streptompycin and Geneticin. On the day of test procedure, growth medium was replaced with preincubation media (Dulbecco's Modified Eagle, Media) and incubated for 30 minutes at 37° C. […] Test compounds were tested over a concentration range of 10^−9 M to 10^−5 M for β3 cells and 10^−8 to 10^−4 M for β1 and β2 transfected cells. Isoproterenol (10^−5 M) was used as an internal standard for comparison of activity. Cells were incubated at 37° C. on a rocker for 30 min with the β3 cells and 15 min for β1 and β2 cells. Incubation was stopped with the addition of 0.2N HCl and neutralized with 2.5N NaOH. The plates, containing the cells and neutralized media, were stored at −20 degrees celsius until ready to test for cAMP using the SPA test kit (Amersham).
Data Analysis and Results: Data collected from the SPA test procedure were analyzed as percent of the maximal isoproterenol response at 10^−5 M. Activity curves were plotted using the SAS statistical and graphics software.

T1 sequence (P13945 whole entry): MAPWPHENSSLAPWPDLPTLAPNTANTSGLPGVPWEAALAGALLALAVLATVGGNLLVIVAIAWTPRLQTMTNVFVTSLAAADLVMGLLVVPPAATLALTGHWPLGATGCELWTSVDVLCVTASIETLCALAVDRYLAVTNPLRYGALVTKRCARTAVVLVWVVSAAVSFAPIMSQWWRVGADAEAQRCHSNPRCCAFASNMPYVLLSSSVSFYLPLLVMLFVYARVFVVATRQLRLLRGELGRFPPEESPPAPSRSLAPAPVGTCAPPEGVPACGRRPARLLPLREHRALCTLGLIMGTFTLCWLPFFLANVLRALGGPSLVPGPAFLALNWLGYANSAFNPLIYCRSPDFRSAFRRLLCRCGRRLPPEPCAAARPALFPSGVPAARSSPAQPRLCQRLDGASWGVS

| SMILES | IA(β3) |
| --- | --- |
| O=c1[nH]c2cccc(OC[C@@H](O)CNC3CCN(c4ccc(NS(=O)(=O)c5ccc(-c6ccccn6)s5)cc4)CC3)c2[nH]1 [Example 278, N-{4-[4-({(2S)-2-Hydroxy-3-[(2-oxo-2,3-dihydro-1H-benzimidazol-4-yl)oxy]propyl}-amino)-1-piperidinyl]phenyl}-5-(2-pyridinyl)-2-thiophenesulfonamide] | 1.04 |
| COc1ccc(S(=O)(=O)Nc2ccc(N3CCC(NC[C@H](O)COc4ccc(O)cc4)CC3)cc2)cc1OC [Example 279, N-[4-(4-{[(2S)-2-Hydroxy-3-(4-hydroxyphenoxy)propyl]amino}-1-piperidinyl)phenyl]-3,4-dimethoxybenzenesulfonamide] | 0.74 |
| COc1ccc(S(=O)(=O)Nc2ccc(N3CCC(NCC(O)c4ccc(O)c(NS(C)(=O)=O)c4)CC3)cc2)cc1OC (stereo not shown) [Example 280, N-(4-{4-[(2-Hydroxy-2-{4-hydroxy-3-[(methylsulfonyl)amino]phenyl}ethyl)amino]-1-piperidinyl}phenyl)-3,4-dimethoxybenzenesulfonamide] | 1.16 |
| CCCCOc1ccc(S(=O)(=O)Nc2ccc(N3CCC(NCC(O)c4ccc(O)c(NS(C)(=O)=O)c4)CC3)cc2)cc1 (stereo not shown) [Example 281, 4-Butoxy-N-(4-{4-[2-hydroxy-2-(4-hydroxy-3-methanesulfonylamino-phenyl)-ethylamino]-piperidin-1-yl}-phenyl)-benzenesulfonamide] | 1.14 |
| CC(=O)Nc1ccc(S(=O)(=O)Nc2ccc(N3CCC(NC[C@H](O)COc4cccc5[nH]c6ccccc6c45)CC3)cc2)cc1 [Example 282, N-(4-{[4-(4-{[(2S)-3-(9H-Carbazol-4-yloxy)-2-hydroxypropyl]amino}-1-piperidinyl)-anilino]sulfonyl}phenyl)acetamide] | 0.63 |
| Cc1c(S(=O)(=O)Nc2ccc(N3CCC(NC[C@H](O)COc4cccc5[nH]c(=O)[nH]c45)CC3)cc2)sc2ccc(Cl)cc12 [Example 283, 5-Chloro-N-{4-[4-({(2S)-2-hydroxy-3-[(2-oxo-2,3-dihydro-1H-benzimidazol-4-yl)oxy]propyl}amino)-1-piperidinyl]phenyl}-3-methyl-1-benzothiophene-2-sulfonamide] | 0.81 |
| N#Cc1ccc(S(=O)(=O)Nc2ccc(N3CCC(NC[C@H](O)COc4cccc5[nH]c(=O)[nH]c45)CC3)cc2)cc1 [Example 284, 4-Cyano-N-{4-[4-({(2S)-2-hydroxy-3-[(2-oxo-2,3-dihydro-1H-benzimidazol-4-yl)oxy]propyl}amino)-1-piperidinyl]phenyl}benzenesulfonamide] | 0.87 |
| N#Cc1ccc(S(=O)(=O)N(c2ccc(N3CCC(NC[C@H](O)COc4cccc5[nH]c(=O)[nH]c45)CC3)cc2)S(=O)(=O)c2ccc(C#N)cc2)cc1 [Example 285, 4-Cyano-N-[(4-cyanophenyl)sulfonyl]-N-{4-[4-({(2S)-2-hydroxy-3-[(2-oxo-2,3-dihydro-1H-benzimidazol-4-yl)oxy]propyl}amino)-1-piperidinyl]phenyl}benzenesulfonamide] | 0.76 |
| O=c1[nH]c2cccc(OC[C@@H](O)CNC3CCN(c4ccc(NS(=O)(=O)c5sc(Cl)cc5Br)cc4)CC3)c2[nH]1 [Example 286, 3-Bromo-5-chloro-N-{4-[4-({(2S)-2-hydroxy-3-[(2-oxo-2,3-dihydro-1H-benzimidazol-4-yl)oxy]propyl}amino)-1-piperidinyl]phenyl}-2-thiophenesulfonamide] | 0.91 |
| O=c1[nH]c2cccc(OC[C@@H](O)CNC3CCN(c4ccc(NS(=O)(=O)c5ccc(-c6ccon6)s5)cc4)CC3)c2[nH]1 [Example 287, N-{4-[4-({(2S)-2-Hydroxy-3-[(2-oxo-2,3-dihydro-1H-benzimidazol-4-yl)oxy]propyl}-amino)-1-piperidinyl]phenyl}-5-(3-isoxazolyl)-2-thiophenesulfonamide] | 0.92 |
| CS(=O)(=O)Nc1cc(C(O)CNC2CCN(c3ccc(NS(=O)(=O)c4ccc(-n5nnn(CCCC6CCCC6)c5=O)cc4)cc3)CC2)ccc1O (stereo not shown) [Example 288, 4-[4-(3-Cyclopentyl-propyl)-5-oxo-4,5-dihydro-tetrazol-1-yl]-N-(4-{4-[2-hydroxy-2-(4-hydroxy-3-methanesulfonylamino-phenyl)-ethaylamino]-piperidin-1-yl}-phenyl)-benzenesulfonamide] | 1.24 |
| CCCCOc1ccc(S(=O)(=O)Nc2ccc(N3CCC(NCC(O)COc4cccc5[nH]c6ccccc6c45)CC3)cc2)cc1 (stereo not shown) [Example 289, 4-Butoxy-N-(4-{4-[3-(9H-carbazol-4-yloxy)-2-hydroxy-propylamino]-piperidin-1-yl}-phenyl)-benzenesulfonamide] | 0.59 |
| CCCCCCNC(=O)Nc1ccc(S(=O)(=O)Nc2ccc(N3CCC(NC[C@H](O)COc4cccc5[nH]c6ccccc6c45)CC3)cc2)cc1 [Example 290] | 0.72 |
| CC(=O)Nc1ccc(S(=O)(=O)Nc2ccc(N3CCC(NC[C@H](O)c4ccc(O)c(NS(C)(=O)=O)c4)CC3)cc2)cc1 [Example 291, N-{4-[(4-{4-[((2R)-2-Hydroxy-2-{4-hydroxy-3-[(methylsulfonyl)amino]-phenyl}ethyl)amino]-1-piperidinyl}anilino)sulfonyl]phenyl}acetamide] | 1.07 |
| COc1ccc(S(=O)(=O)Nc2ccc(N3CCC(NC[C@H](O)COc4cccc5[nH]c6ccccc6c45)CC3)cc2)cc1OC [Example 292, N-[4-(4-{[(2S)-3-(9H-Carbazol-4-yloxy)-2-hydroxypropyl]amino}-1-piperidinyl)phenyl]-3,4-dimethoxybenzenesulfonamide] | 0.75 |
| O=S(=O)(Nc1ccc(N2CCC(NC[C@H](O)COc3ccc(O)cc3)CC2)cc1)c1ccc(-c2ccccn2)s1 [Example 293, N-[4-(4-{[(2S)-2-Hydroxy-3-(4-hydroxyphenoxy)propyl]amino}-1-piperidinyl)phenyl]-5-(2-pyridinyl)-2-thiophenesulfonamide] | 0.94 |
| CS(=O)(=O)Nc1cc(C(O)CNC2CCN(c3ccc(NS(=O)(=O)c4ccc(-c5ccccn5)s4)cc3)CC2)ccc1O (stereo not shown) [Example 294, N-(4-{4-[(2-Hydroxy-2-{4-hydroxy-3-[(methylsulfonyl)amino]phenyl}ethyl)amino]-1-piperidinyl}phenyl)-5-(2-pyridinyl)-2-thiophenesulfonamide] | 1.07 |
| CCCCS(=O)(=O)Nc1ccc(N2CCC(NCC(O)c3ccc(O)c(NS(C)(=O)=O)c3)CC2)cc1 (stereo not shown) [Example 295, N-(4-{4-[(2-Hydroxy-2-{4-hydroxy-3-[(methylsulfonyl)amino]phenyl}ethyl)amino]-1-piperidinyl}phenyl)-1-butanesulfonamide] | 0.87 |
| CCCCS(=O)(=O)Nc1ccc(N2CCC(NC[C@H](O)COc3cccc4[nH]c(=O)[nH]c34)CC2)cc1 [Example 296, N-{4-[4-({(2S)-2-Hydroxy-3-[(2-oxo-2,3-dihydro-1H-benzimidazol-4-yl)oxy]propyl}amino)-1-piperidinyl]phenyl}-1-butanesulfonamide] | 0.81 |
| CCCCCCCCS(=O)(=O)Nc1ccc(N2CCC(NCC(O)c3ccc(O)c(NS(C)(=O)=O)c3)CC2)cc1 (stereo not shown) [Example 297, N-(4-{4-[(2-Hydroxy-2-{4-hydroxy-3-[(methylsulfonyl)amino]phenyl}ethyl)amino]-1-piperidinyl}phenyl)-1-octanesulfonamide] | 1 |
| CCCCCCCCS(=O)(=O)Nc1ccc(N2CCC(NC[C@H](O)COc3cccc4[nH]c(=O)[nH]c34)CC2)cc1 [Example 298, N-{4-[4-({(2S)-2-Hydroxy-3-[(2-oxo-2,3-dihydro-1H-benzimidazol-4-yl)oxy]propyl}amino)-1-piperidinyl]phenyl}-1-octanesulfonamide] | 0.78 |
| O=c1[nH]c2cccc(OC[C@@H](O)CNC3CCN(c4ccc(NS(=O)(=O)c5ccc(S(=O)(=O)c6ccc(C(F)(F)F)cn6)s5)cc4)CC3)c2[nH]1 [Example 299] | 1.1 |
| O=S(=O)(Nc1ccc(N2CCC(NC[C@H](O)COc3ccc(O)cc3)CC2)cc1)c1ccc(S(=O)(=O)c2ccc(C(F)(F)F)cn2)s1 [Example 300, N-[4-(4-{[(2S)-2-Hydroxy-3-(4-hydroxyphenoxy)propyl]amino}-1-piperidinyl)phenyl]-5-{[5-(trifluoromethyl)-2-pyridinyl]sulfonyl}-2-thiophenesulfonamide] | 0.78 |
| O=C1NC(=O)C(Cc2ccc(S(=O)(=O)Nc3ccc(N4CCC(NC[C@H](O)COc5cccc6[nH]c(=O)[nH]c56)CC4)cc3)cc2)S1 (stereo partly drawn) [Example 301, 4-[(2,4-Dioxo-1,3-thiazolidin-5-yl)methyl]-N-{4-[4-({(2S)-2-hydroxy-3-[(2-oxo-2,3-dihydro-1H-benzimidazol-4-yl)oxy]propyl}amino)-1-piperidinyl]phenyl}-benzenesulfonamide] | 0.95 |
| CS(=O)(=O)Nc1cc(C(O)CNC2CCN(c3ccc(NS(=O)(=O)c4ccc(CC5SC(=O)NC5=O)cc4)cc3)CC2)ccc1O (stereo not shown) [Example 302, 4-[(2,4-Dioxo-1,3-thiazolidin-5-yl)methyl]-N-(4-{4-[(2-hydroxy-2-{4-hydroxy-3-[(methylsulfonyl)amino]phenyl}ethyl)amino]-1-piperidinyl}phenyl)benzenesulfonamide] | 0.95 |
